This note sets out measurements from publication PMC9552147 (Nature Communications, 2022).

Several values for one entry are separate records, joined by “and”; a condition that tells them apart may be missing. Equal values may be shown once.

This test concerns M. tuberculosis resistant mutant (lysS S491 insertion). It is filed as cell-based, Mycobacterium tuberculosis.

As to `Nc1cc2c(c(F)n1)C(=O)N(C1CCCCC1)C2` [Compound 2], the “Mutant (S491)MIC” value was 0.11 µM and 0.095 µM; the “Mutant (S491)MIC, Ave” value came out at 0.10 µM.
In the case of `NNC(=O)c1ccncc1` [isoniazid], the “fold resistance of the resistant mutant strain compared to wild-type H37Rv (MIC)” value was “equivalent sensitivity”.
